Like-named read-outs stand apart in the source and are kept apart here.
Legend:
[1] = system: 3D7 strain of Plasmodium falciparum; test: Potency in the 3D7 strain of Plasmodium falciparum (EC50); format: cell-based; conditions: Plasmodium falciparum
Text: The present invention relates to methods of treating malaria with tetrahydrobenzonaphtyridine carboxanilide (TBN) derivatives and related pyrrolinones and hydrolysis products thereof. These compounds are active against Plasmodium falciparum strains that are resistant to multiple drugs currently on the market. The present invention further relates to novel compounds and pharmaceutical compositions comprising such compounds. The compounds have been synthesized and tested for their potency in the 3D7 strain of Plasmodium falciparum. Their cytotoxicity was also tested in the BJ human fibroblast line. No compounds show significant cytotoxicity.
(§1) A high-throughput screen performed against the Plasmodium parasite. About 8,000 compounds were screened. Each hit was tested against resistant P. falciparum variants K1, V1S, D10DD, ATP4 1247, and C2B. Potency against these assays assured that the chemotype acts through a mechanism distinct from that of halofantrine, chloroquine, mefloquine, pyrimethamine, proguanil, atovaquone, and (+)SJ733. The toxicity of the compounds was also measured by testing their lethality against a BJ cell line (human fibroblasts). No TBNs were toxic. A structure activity investigation was performed in order to improve the EC50 of the TBNs to the single-digit nanomolar range, as well as to increase the water solubility.
(§2) Substituents were installed at N−2 by using a variety of methods. Reductive alkylation (Abdel-Magid, A. F.; Mehrman, S. J. A Review on the Use of Sodium Triacetoxyborohydride in the Reductive Amination of Ketones and Aldehydes. Org. Process Res. Dev. 2006, 10 (5), 971-1031) was a dependable technique that produced over fifteen analogues. Conjugate additions and nucleophilic substitutions provided most of the others. A type of reductive alkylation that uses carboxylic acids instead of aldehydes (the Beller reduction) led to two analogues (Sorribes, I.; Junge, K.; Beller, M. Direct Catalytic N-Alkylation of Amines with Carboxylic Acids. J. Am. Chem. Soc. 2014, 136 (40), 14314-14319. Some of the compounds listed were synthesized through other means, or were derived from other TBNs. Compounds 66 and 128 were produced by the amidation of acids 132 and 133, which had the corresponding substitution already installed. TBNs 93, and 94 were produced from the Pfitzinger products formed from the condensation of isatin with (R)-1-(1-phenylethyl)piperidin-4-one (134) and (S)-1-(1-phenylethyl)piperidin-4-one (135), respectively.

[2] = system: resistant P. falciparum variant K1; test: Potency against resistant P. falciparum variant K1 (EC50); format: cell-based; conditions: Plasmodium falciparum, K1, read-out: K1 EC50 (μM)
Protocol: as §1, §2

[3] = 3D7, read-out: 3D7 Mean EC50 (μM)

| Compound | EC50 [1, 3] | EC50 [2] | also measured |
| --- | --- | --- | --- |
| O=C(Nc1ccc(F)c(F)c1)c1c2c(nc3ccccc13)CCNC2 [Compound 88, N-(3,4-Difluorophenyl)-1,2,3,4-tetrahydrobenzo[b][1,6]naphthyridine-10-carboxamide] | 10.3 ± 10.2 µM | – | – |
| CC(C)(C)OC(=O)N1CCC(N2CCc3nc4ccccc4c(C(=O)Nc4ccc(F)c(F)c4)c3C2)CC1 [Compound 89, tert-Butyl 4-(10-((3,4-difluorophenyl)carbamoyl)-3,4-dihydrobenzo[b][1,6]naphthyridin-2(1H)-yl)piperidine-1-carboxylate] | 0.0257 ± 0.00583 µM | – | – |
| O=C(Nc1ccc(F)c(F)c1)c1c2c(nc3ccccc13)CCN(CCc1ccccc1)C2 [Compound 91, N-(3,4-Difluorophenyl)-2-phenethyl-1,2,3,4-tetrahydrobenzo[b][1,6]naphthyridine-10-carboxamide] | 0.117 ± 0.102 µM | 0.0839 µM | – |
| C[C@H](c1ccccc1)N1CCc2nc3ccccc3c(C(=O)Nc3ccc(F)c(F)c3)c2C1 [Compound 93, (R)—N-(3,4-Difluorophenyl)-2-(1-phenylethyl)-1,2,3,4-tetrahydrobenzo[b][1,6]naphthyridine-10-carboxamide] | 0.131 ± 0.00623 µM | 0.064 µM | – |
| C[C@@H](c1ccccc1)N1CCc2nc3ccccc3c(C(=O)Nc3ccc(F)c(F)c3)c2C1 [Compound 94, (S)—N-(3,4-Difluorophenyl)-2-(1-phenylethyl)-1,2,3,4-tetrahydrobenzo[b][1,6]naphthyridine-10-carboxamide] | 0.154 ± 0.0285 µM | 0.148 µM | – |
| CC(C)CN1CCc2nc3ccccc3c(C(=O)Nc3ccc(F)c(F)c3)c2C1 [Compound 95, N-(3,4-Difluorophenyl)-2-isobutyl-1,2,3,4-tetrahydrobenzo[b][1,6]naphthyridine-10-carboxamide] | 0.154 ± 0.162 µM | 0.121 µM | – |
| CC(C)N1CCc2nc3ccccc3c(C(=O)Nc3ccc(F)c(F)c3)c2C1 [Compound 96, N-(3,4-Difluorophenyl)-2-isopropyl-1,2,3,4-tetrahydrobenzo[b][1,6]naphthyridine-10-carboxamide] | 0.215 ± 0.269 µM | 0.177 µM | – |
| COC(=O)C(C)CN1CCc2nc3ccccc3c(C(=O)Nc3ccc(F)c(F)c3)c2C1 (stereo not drawn) [Compound 97, Methyl 3-(10-((3,4-difluorophenyl)carbamoyl)-3,4-dihydrobenzo[b][1,6]naphthyridin-2(1H)-yl)-2-methylpropanoate] | 0.328 ± 0.17 µM | 0.185 µM | – |
| O=C(Nc1ccc(F)c(F)c1)c1c2c(nc3ccccc13)CCN(CCc1ccccn1)C2 [Compound 98, N-(3,4-Difluorophenyl)-2-(2-(pyridin-2-yl)ethyl)-1,2,3,4-tetrahydrobenzo[b][1,6]naphthyridine-10-carboxamide] | 0.329 ± 0.0232 µM | – | – |
| CCCCN1CCc2nc3ccccc3c(C(=O)Nc3ccc(F)c(F)c3)c2C1 [Compound 99, 2-Butyl-N-(3,4-difluorophenyl)-1,2,3,4-tetrahydrobenzo[b][1,6]naphthyridine-10-carboxamide] | 0.37 ± 0.376 µM | 0.102 µM | – |
| O=C(Nc1ccc(F)c(F)c1)c1c2c(nc3ccccc13)CCN(Cc1cccc(F)c1)C2 [Compound 100, N-(3,4-Difluorophenyl)-2-(3-fluorobenzyl)-1,2,3,4-tetrahydrobenzo[b][1,6]naphthyridine-10-carboxamide] | 0.412 ± 0.291 µM | 0.161 µM | – |
| O=C(Nc1ccc(F)c(F)c1)c1c2c(nc3ccccc13)CCN(CC1CC1)C2 [Compound 101, 2-(Cyclopropylmethyl)-N-(3,4-difluorophenyl)-1,2,3,4-tetrahydrobenzo[b][1,6]naphthyridine-10-carboxamide] | 0.429 ± 0.303 µM | 0.272 µM | – |
| O=C(Nc1ccc(F)c(F)c1)c1c2c(nc3ccccc13)CCN(CCOC1CCCCO1)C2 (stereo not drawn) [Compound 102, N-(3,4-Difluorophenyl)-2-(2-((tetrahydro-2H-pyran-2-yl)oxy)ethyl)-1,2,3,4-tetrahydrobenzo[b][1,6]naphthyridine-10-carboxamide] | 0.441 ± 0.156 µM | 0.178 ± 0.0436 µM | – |
| Cn1ccc(CN2CCc3nc4ccccc4c(C(=O)Nc4ccc(F)c(F)c4)c3C2)n1 [Compound 114, N-(3,4-Difluorophenyl)-2-((1-methyl-1H-pyrazol-3-yl)methyl)-1,2,3,4-tetrahydrobenzo[b][1,6]naphthyridine-10-carboxamide] | 1.89 ± 0.817 µM | – | – |
| O=C(Nc1ccc(F)c(F)c1)c1c2c(nc3ccccc13)CCN(Cc1cncc(F)c1)C2 [Compound 115, N-(3,4-Difluorophenyl)-2-((5-fluoropyridin-3-yl)methyl)-1,2,3,4-tetrahydrobenzo[b][1,6]naphthyridine-10-carboxamide] | 1.96 ± 2.34 µM | – | – |
| Cn1cnc(CN2CCc3nc4ccccc4c(C(=O)Nc4ccc(F)c(F)c4)c3C2)c1 [Compound 117, N-(3,4-Difluorophenyl)-2-((1-methyl-1H-imidazol-4-yl)methyl)-1,2,3,4-tetrahydrobenzo[b][1,6]naphthyridine-10-carboxamide] | 2.4 ± 1.39 µM | – | – |
| O=C(Nc1ccc(F)c(F)c1)c1c2c(nc3ccccc13)CCN(Cc1ncccc1F)C2 [Compound 118, N-(3,4-difluorophenyl)-2-((3-fluoropyridin-2-yl)methyl)-1,2,3,4-tetrahydrobenzo[b][1,6]naphthyridine-10-carboxamide] | 3.41 ± 2.9 µM | – | – |
| CCOCC(=O)N1CCc2nc3ccccc3c(C(=O)Nc3ccc(F)c(F)c3)c2C1 [Compound 119, N-(3,4-Difluorophenyl)-2-(2-ethoxyacetyl)-1,2,3,4-tetrahydrobenzo[b][1,6]naphthyridine-10-carboxamide] | 3.49 ± 0.831 µM | – | – |
| O=C(Nc1ccc(F)c(F)c1)c1c2c(nc3ccccc13)CCN(CCN1C(=O)c3ccccc3C1=O)C2 [Compound 121, N-(3,4-Difluorophenyl)-2-(2-(1,3-dioxoisoindolin-2-yl)ethyl)-1,2,3,4-tetrahydrobenzo[b][1,6]naphthyridine-10-carboxamide] | 3.95 ± 1.07 µM | – | – |
| O=C(Nc1ccc(F)c(F)c1)c1c2c(nc3ccccc13)CCN(CC(F)(F)F)C2 [Compound 123, N-(3,4-Difluorophenyl)-2-(2,2,2-trifluoroethyl)-1,2,3,4-tetrahydrobenzo[b][1,6]naphthyridine-10-carboxamide] | 7.69 ± 8.61 µM | – | – |
| COC(=O)CN1CCc2nc3ccccc3c(C(=O)Nc3ccc(F)c(F)c3)c2C1 [Compound 125, Methyl 2-(10-((3,4-difluorophenyl)carbamoyl)-3,4-dihydrobenzo[b][1,6]naphthyridin-2(1H)-yl)acetate] | 9.11 ± 7.61 µM | – | – |
| Cn1ccnc1CN1CCc2nc3ccccc3c(C(=O)Nc3ccc(F)c(F)c3)c2C1 [Compound 127, N-(3,4-Difluorophenyl)-2-((1-methyl-1H-imidazol-2-yl)methyl)-1,2,3,4-tetrahydrobenzo[b][1,6]naphthyridine-10-carboxamide] | 10.1 ± 6.39 µM | – | – |
| CCN1CCc2nc3ccccc3c(C(=O)Nc3ccc(F)c(F)c3)c2C1 [Compound 128, N-(3,4-Difluorophenyl)-2-ethyl-1,2,3,4-tetrahydrobenzo[b][1,6]naphthyridine-10-carboxamide] | > 12.2 µM | – | – |
| CS(=O)(=O)CCN1CCc2nc3ccccc3c(C(=O)Nc3ccc(F)c(F)c3)c2C1 [Compound 130, N-(3,4-Difluorophenyl)-2-(2-(methylsulfonyl)ethyl)-1,2,3,4-tetrahydrobenzo[b][1,6]naphthyridine-10-carboxamide] | > 14.7 µM | – | – |
| CC(=O)O[C@H]1CO[C@H]2[C@@H]1OC[C@@H]2Oc1cccc(NC(=O)c2c3c(nc4ccccc24)CCN(CCc2ccccc2)C3)c1 [Compound 147, (3S,3aR,6S,6aR)-6-(3-(2-Phenethyl-1,2,3,4-tetrahydrobenzo[b][1,6]naphthyridine-10-carboxamido)phenoxy)hexahydrofuro[3,2-b]furan-3-yl acetate] | – | – | EC50 ([1]; 3D7, read-out: potency (EC50)): 3.87 µM |
| O=C(Nc1ccc(F)c(F)c1)c1c2c(nc3cc(Cl)ccc13)CCN(CCc1ccccc1)C2 [Compound 157, 7-Chloro-N-(3,4-difluorophenyl)-2-phenethyl-1,2,3,4-tetrahydrobenzo[b][1,6]naphthyridine-10-carboxamide] | 0.0179 ± 0.01 µM | – | – |
| O=C(Nc1ccc(F)c(F)c1)c1c2c(nc3ccc(Cl)cc13)CCN(CCc1ccccc1)C2 [Compound 158, 8-Chloro-N-(3,4-difluorophenyl)-2-phenethyl-1,2,3,4-tetrahydrobenzo[b][1,6]naphthyridine-10-carboxamide] | 0.0153 ± 0.00774 µM | – | – |
| O=C1c2c3c(nc4cc(Cl)ccc24)CCN(CCc2ccccc2)C3N1c1ccc(F)c(F)c1 (stereo not drawn) [Compound 172, 8-Chloro-2-(3,4-difluorophenyl)-3-phenethyl-2a,3,4,5-tetrahydrobenzo[b]pyrrolo[4,3,2-de][1,6]naphthyridin-1(2H)-one] | 0.0071 ± 0.000461 µM | – | EC50 ([1]; 3D7): 0.0071 µM |
